Data from the kinase profiling compilation of Christmann-Franck et al. (2016).

Columns and labels:
Experiment in all cases: KINOMEscan competition binding
Details in all cases: compound 1.0 µM
[1] = target: CDK19 (human) (UniProt Q9BWU1)
[2] = target: CDK5 (human) (UniProt Q00535)
[3] = target: CHUK (human) (UniProt O15111)
[4] = target: CIT (human) (UniProt O14578)
[5] = target: CLK3 (human) (UniProt P49761)
[6] = target: CSNK1G3 (human) (UniProt Q9Y6M4)
[7] = target: DDR1 (human) (UniProt Q08345)
[8] = target: DYRK1B (human) (UniProt Q9Y463)
DYRK1B (human), sequence (Q9Y463 whole entry, looked up): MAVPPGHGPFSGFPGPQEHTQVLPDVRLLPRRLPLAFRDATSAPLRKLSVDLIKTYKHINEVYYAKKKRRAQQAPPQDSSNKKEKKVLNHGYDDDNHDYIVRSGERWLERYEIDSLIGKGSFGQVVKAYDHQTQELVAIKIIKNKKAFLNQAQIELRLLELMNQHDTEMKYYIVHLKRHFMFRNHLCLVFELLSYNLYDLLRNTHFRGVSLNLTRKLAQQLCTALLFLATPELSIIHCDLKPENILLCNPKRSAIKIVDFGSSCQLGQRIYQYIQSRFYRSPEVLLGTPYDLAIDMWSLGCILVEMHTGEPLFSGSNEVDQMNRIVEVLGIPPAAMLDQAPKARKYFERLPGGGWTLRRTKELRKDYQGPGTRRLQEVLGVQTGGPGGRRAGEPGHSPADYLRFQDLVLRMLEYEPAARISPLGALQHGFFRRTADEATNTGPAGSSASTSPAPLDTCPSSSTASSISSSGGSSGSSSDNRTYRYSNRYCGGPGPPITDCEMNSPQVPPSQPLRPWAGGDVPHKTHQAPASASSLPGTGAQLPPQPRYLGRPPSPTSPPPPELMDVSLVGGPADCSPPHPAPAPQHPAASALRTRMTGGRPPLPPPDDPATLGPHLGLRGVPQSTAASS

[9] = target: EGFR (human) (UniProt P00533)
[10] = target: EIF2AK1 (human) (UniProt Q9BQI3)
[11] = target: ERBB2 (human) (UniProt P04626)
ERBB2 (human), sequence (P04626 whole entry, looked up): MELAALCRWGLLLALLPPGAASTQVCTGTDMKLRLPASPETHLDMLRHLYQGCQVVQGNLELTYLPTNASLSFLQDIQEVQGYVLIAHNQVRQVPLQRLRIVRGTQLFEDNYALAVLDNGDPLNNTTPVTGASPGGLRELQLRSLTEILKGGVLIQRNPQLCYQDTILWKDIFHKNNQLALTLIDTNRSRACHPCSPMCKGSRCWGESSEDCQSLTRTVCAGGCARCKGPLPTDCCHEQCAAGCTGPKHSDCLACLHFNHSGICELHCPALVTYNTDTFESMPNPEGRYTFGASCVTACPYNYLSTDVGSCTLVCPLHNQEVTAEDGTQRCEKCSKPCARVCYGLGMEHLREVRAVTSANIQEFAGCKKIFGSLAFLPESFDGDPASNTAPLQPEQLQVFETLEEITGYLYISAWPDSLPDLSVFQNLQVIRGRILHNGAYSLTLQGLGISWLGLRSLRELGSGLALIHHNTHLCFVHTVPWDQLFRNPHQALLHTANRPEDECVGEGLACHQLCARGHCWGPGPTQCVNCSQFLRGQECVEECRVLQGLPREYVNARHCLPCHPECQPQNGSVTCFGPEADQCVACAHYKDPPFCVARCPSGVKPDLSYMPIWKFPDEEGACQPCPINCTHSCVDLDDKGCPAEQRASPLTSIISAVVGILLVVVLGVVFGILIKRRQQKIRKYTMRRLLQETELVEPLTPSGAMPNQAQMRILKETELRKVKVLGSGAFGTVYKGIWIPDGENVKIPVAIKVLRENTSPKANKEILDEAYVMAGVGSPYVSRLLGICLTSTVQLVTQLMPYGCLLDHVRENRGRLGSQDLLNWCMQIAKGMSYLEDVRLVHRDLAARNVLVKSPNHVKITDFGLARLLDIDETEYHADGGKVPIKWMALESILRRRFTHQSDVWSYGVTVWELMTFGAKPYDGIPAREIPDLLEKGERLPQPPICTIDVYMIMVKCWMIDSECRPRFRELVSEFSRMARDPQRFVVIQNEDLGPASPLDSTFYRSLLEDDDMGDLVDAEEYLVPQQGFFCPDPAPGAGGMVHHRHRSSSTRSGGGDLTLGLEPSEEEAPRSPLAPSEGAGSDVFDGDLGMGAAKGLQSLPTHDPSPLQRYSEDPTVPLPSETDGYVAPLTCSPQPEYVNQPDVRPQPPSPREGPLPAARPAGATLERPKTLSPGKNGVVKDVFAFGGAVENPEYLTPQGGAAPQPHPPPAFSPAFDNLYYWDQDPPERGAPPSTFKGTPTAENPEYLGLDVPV

[12] = target: FGFR3 (human) (UniProt P22607)
[13] = test system: FGFR3 (human), P22607 [G697C]
[14] = target: FGR (human) (UniProt P09769)
[15] = target: FLT1 (human) (UniProt P17948)
FLT1 (human), sequence (P17948 whole entry, looked up): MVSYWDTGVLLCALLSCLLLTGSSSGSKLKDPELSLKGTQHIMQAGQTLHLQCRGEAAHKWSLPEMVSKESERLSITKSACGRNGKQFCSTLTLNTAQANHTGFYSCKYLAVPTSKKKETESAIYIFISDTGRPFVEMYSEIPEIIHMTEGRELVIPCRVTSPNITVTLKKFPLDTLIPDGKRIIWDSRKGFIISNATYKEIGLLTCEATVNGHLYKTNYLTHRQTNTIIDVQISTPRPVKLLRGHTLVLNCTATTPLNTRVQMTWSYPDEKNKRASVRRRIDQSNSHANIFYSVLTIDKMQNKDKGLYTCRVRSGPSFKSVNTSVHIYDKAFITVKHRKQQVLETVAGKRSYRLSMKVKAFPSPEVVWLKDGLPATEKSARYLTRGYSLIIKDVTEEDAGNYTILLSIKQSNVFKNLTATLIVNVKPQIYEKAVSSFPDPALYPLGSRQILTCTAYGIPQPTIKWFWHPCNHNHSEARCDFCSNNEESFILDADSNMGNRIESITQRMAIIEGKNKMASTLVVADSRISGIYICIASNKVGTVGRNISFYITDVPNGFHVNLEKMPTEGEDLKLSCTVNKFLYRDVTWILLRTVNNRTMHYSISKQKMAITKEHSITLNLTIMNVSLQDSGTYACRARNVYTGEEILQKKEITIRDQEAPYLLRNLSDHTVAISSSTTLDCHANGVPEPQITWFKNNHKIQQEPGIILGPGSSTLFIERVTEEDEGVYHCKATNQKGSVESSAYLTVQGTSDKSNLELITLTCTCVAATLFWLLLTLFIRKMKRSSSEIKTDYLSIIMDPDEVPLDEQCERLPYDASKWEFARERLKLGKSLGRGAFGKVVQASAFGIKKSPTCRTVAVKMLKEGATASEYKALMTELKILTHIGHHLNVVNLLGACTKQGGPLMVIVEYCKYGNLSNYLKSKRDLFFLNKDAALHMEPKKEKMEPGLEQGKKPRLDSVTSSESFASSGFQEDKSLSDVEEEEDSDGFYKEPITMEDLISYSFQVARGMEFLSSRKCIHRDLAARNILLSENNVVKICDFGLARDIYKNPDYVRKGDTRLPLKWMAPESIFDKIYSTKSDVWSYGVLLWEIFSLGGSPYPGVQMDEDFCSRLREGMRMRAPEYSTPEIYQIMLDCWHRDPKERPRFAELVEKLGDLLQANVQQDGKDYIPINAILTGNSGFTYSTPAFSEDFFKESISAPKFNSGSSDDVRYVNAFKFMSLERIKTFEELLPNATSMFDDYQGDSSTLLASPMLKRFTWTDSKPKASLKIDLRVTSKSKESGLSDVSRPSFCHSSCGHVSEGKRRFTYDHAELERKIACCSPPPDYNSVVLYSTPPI

[16] = target: FLT4 (human) (UniProt P35916)
[17] = target: FRK (human) (UniProt P42685)
[18] = target: GAK (human) (UniProt O14976)
[19] = target: KDR (human) (UniProt P35968)
[20] = test system: KIT (human), P10721 [A829P]
[21] = test system: KIT (human), P10721 [D816H]
[22] = target: LCK (human) (UniProt P06239)
[23] = target: LTK (human) (UniProt P29376)
[24] = target: MAP4K3 (human) (UniProt Q8IVH8)
[25] = target: MAP4K4 (human) (UniProt O95819)
[26] = target: MUSK (human) (UniProt O15146)
MUSK (human), sequence (O15146 whole entry, looked up): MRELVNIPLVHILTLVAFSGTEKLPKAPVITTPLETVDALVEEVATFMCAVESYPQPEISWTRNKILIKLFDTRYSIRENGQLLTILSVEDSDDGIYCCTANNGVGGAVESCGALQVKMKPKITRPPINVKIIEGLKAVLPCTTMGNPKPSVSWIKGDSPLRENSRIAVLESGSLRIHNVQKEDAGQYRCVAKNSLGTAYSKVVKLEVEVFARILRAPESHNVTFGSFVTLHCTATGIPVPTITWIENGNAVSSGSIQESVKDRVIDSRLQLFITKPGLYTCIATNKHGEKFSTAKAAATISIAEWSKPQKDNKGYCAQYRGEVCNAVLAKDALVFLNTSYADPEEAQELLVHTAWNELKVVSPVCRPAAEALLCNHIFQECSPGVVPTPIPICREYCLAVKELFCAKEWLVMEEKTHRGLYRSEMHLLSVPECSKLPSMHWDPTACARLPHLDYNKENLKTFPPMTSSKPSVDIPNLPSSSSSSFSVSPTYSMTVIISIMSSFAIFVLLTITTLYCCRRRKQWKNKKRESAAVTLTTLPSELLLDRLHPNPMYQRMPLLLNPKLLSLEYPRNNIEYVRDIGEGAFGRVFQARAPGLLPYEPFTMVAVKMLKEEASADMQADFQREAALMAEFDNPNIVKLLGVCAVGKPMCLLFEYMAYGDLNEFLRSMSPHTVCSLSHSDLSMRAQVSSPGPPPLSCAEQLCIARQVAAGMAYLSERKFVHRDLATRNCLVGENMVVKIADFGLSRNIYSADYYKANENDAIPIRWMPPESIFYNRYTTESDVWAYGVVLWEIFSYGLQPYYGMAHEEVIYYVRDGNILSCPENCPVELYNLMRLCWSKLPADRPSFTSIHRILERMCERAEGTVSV

[27] = target: NEK11 (human) (UniProt Q8NG66)
[28] = target: NEK4 (human) (UniProt P51957)
[29] = target: PDGFRB (human) (UniProt P09619)
[30] = target: PIK3C2B (human) (UniProt O00750)
[31] = target: PIP5K1C (human) (UniProt O60331)
[32] = target: PLK2 (human) (UniProt Q9NYY3)
[33] = target: PRKCD (human) (UniProt Q05655)
[34] = target: PRKD3 (human) (UniProt O94806)
[35] = test system: RET (human), P07949 [V804M]
[36] = target: ROCK1 (human) (UniProt Q13464)
[37] = target: RPS6KA2 KD1 (human) (UniProt Q15349)
[38] = target: STK11 (human) (UniProt Q15831)
[39] = target: STK39 (human) (UniProt Q9UEW8)

CHUK (human), sequence (O15111 whole entry, looked up): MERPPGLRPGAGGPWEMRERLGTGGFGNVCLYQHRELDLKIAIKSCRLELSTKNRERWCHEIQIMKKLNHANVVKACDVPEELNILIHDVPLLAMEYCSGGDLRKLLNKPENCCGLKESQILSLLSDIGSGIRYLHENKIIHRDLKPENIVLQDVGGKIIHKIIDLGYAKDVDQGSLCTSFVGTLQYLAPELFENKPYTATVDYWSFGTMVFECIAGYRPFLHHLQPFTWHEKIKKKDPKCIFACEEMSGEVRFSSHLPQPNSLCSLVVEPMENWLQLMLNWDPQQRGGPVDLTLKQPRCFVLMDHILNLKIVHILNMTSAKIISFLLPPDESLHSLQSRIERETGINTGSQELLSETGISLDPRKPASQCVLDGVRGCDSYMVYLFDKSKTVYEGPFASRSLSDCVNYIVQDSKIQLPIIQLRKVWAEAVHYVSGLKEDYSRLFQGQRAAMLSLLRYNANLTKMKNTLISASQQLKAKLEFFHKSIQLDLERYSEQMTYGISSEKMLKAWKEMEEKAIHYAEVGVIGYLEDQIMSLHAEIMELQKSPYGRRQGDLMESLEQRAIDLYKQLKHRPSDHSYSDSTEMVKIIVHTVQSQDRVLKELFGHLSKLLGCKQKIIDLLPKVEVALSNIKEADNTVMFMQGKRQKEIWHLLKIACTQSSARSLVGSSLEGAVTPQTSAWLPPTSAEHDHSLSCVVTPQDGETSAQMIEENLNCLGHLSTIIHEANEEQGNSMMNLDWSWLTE

Q: Which residual activity [1] does the source give for CNc1nc(Nc2ccc(C(=O)N3CCOCC3)cc2OC)ncc1Cl here?
A: 100%

Q: And the residual activity [2]?
A: 100%

Q: What about the kinase still bound, per cent of control [3] of the same compound?
A: 50%

Q: And the kinase still bound, per cent of control [4]?
A: 100%

Q: What about the kinase still bound, per cent of control [5] of the same compound?
A: 100%

Q: And the kinase still bound, per cent of control [6]?
A: 100%

Q: And the kinase still bound, per cent of control [7]?
A: 100%

Q: What about the kinase still bound, per cent of control [8] of the same compound?
A: 100%

Q: And the kinase still bound, per cent of control [9]?
A: 100%

Q: What about the kinase still bound, per cent of control [10] of the same compound?
A: 100%

Q: And the kinase still bound, per cent of control [11]?
A: 100%

Q: And the kinase still bound, per cent of control [12]?
A: 100%

Q: And the kinase still bound, per cent of control [13]?
A: 100%

Q: And the kinase still bound, per cent of control [14]?
A: 100%

Q: What about the kinase still bound, per cent of control [15] of the same compound?
A: 100%

Q: What about the kinase still bound, per cent of control [16] of the same compound?
A: 93%

Q: What about the kinase still bound, per cent of control [17] of the same compound?
A: 63%

Q: What about the kinase still bound, per cent of control [18] of the same compound?
A: 25%

Q: And the kinase still bound, per cent of control [19]?
A: 87%

Q: What about the kinase still bound, per cent of control [20] of the same compound?
A: 93%

Q: And the kinase still bound, per cent of control [21]?
A: 100%

Q: And the kinase still bound, per cent of control [22]?
A: 100%

Q: And the kinase still bound, per cent of control [23]?
A: 50%

Q: What about the kinase still bound, per cent of control [24] of the same compound?
A: 100%

Q: And the kinase still bound, per cent of control [25]?
A: 77%

Q: And the kinase still bound, per cent of control [26]?
A: 100%

Q: What about the kinase still bound, per cent of control [27] of the same compound?
A: 100%

Q: What about the kinase still bound, per cent of control [28] of the same compound?
A: 87%

Q: What about the kinase still bound, per cent of control [29] of the same compound?
A: 76%

Q: And the kinase still bound, per cent of control [30]?
A: 96%

Q: What about the kinase still bound, per cent of control [31] of the same compound?
A: 99%

Q: What about the kinase still bound, per cent of control [32] of the same compound?
A: 100%

Q: What about the kinase still bound, per cent of control [33] of the same compound?
A: 49%

Q: And the kinase still bound, per cent of control [34]?
A: 98%

Q: What about the kinase still bound, per cent of control [35] of the same compound?
A: 92%

Q: And the kinase still bound, per cent of control [36]?
A: 100%

Q: What about the kinase still bound, per cent of control [37] of the same compound?
A: 100%

Q: And the kinase still bound, per cent of control [38]?
A: 90%

Q: And the residual activity [39]?
A: 100%
